Measured values from US9238039B2, “Pyrazolo[1,5-A]pyrimidines for antiviral treatment” (Gilead Sciences, Inc., priority 2010, dated 2016).

Test system: RSV strain A2
Test: RSV antiviral cytoprotection assay in Hep2 cells (96-well and 384-well format, Cell TiterGlo read-out)
Format: cell-based, Respiratory Syncytial Virus (RSV)
Settings: human respiratory syncytial virus; for inhibition at 0.5 µM: HEp-2, 0.5 uM, RSV-induced cytopathic effect in Hep2 cells, calculated from fitted dose response curve, normalized to 0% and 100%; for EC50: HEp-2, RSV-induced cytopathic effects, Hep2 cells, class symbols

| SMILES | inhibition at 0.5 µM | EC50 |
| --- | --- | --- |
| CS(=O)(=O)Nc1ccc(Cl)cc1C(=O)N1CCCC[C@H]1c1cc2nc(N3CC(O)C3)cc(N3CCC(O)CC3)n2n1 [Compound 81] | 100% | 0.1 to 100 nM |
| Cc1cc(N2CC(O)C2)nc2cc([C@@H]3CCCCN3C(=O)c3cc(Br)ccc3NS(C)(=O)=O)nn12 [Compound 82] | 100% | 0.1 to 100 nM |
| CS(=O)(=O)Nc1ccc(Cl)cc1C(=O)N1CCCC[C@H]1c1cc2nc(N3CC(O)C3)cc(N3CCN(CC(F)(F)F)CC3)n2n1 [Compound 83] | 98% | 0.1 to 100 nM |
| CS(=O)(=O)Nc1ccc(Cl)cc1C(=O)N1CCCC[C@H]1c1cc2nc(N3CCC3)cc(N3CCN(CC(F)(F)F)CC3)n2n1 [Compound 84] | 100% | 0.1 to 100 nM |
| Cc1ccc(NS(C)(=O)=O)c(C(=O)N2CCCC[C@H]2c2cc3nc(C)c(C)c(-c4ccccc4)n3n2)c1 [Compound 86] | 99% | 0.1 to 100 nM |
| Cc1ccc(NS(C)(=O)=O)c(C(=O)N2CCCC[C@H]2c2cc3nc(C)c(C)c(C4CC4)n3n2)c1 [Compound 87] | 84% | 101 to 1000 nM |
| CC(=O)Nc1c(C)c(C)nc2cc([C@@H]3CCCCN3C(=O)c3cc(C)ccc3NS(C)(=O)=O)nn12 [Compound 88] | 98% | 0.1 to 100 nM |
| Cc1ccc(NS(C)(=O)=O)c(C(=O)N2CCC(C)CC2c2cc3[nH]c(C)c(C)c(=O)n3n2)c1 (centres unmarked) [Compound 89] | 100% | 0.1 to 100 nM |
| Cc1cn2nc([C@@H]3CCCCN3C(=O)c3cc(Cl)ccc3NS(C)(=O)=O)cc2nc1N1CC(C)(O)C1 [Compound 96] | 97% | 0.1 to 100 nM |
| Cc1ccc(NS(C)(=O)=O)c(C(=O)N2CCCC[C@H]2c2cc3nc(C)c(C)c(N4CCCC4)n3n2)c1 [Compound 98] | 98% | 0.1 to 100 nM |
| Cc1nc2cc([C@@H]3CCCCN3C(=O)c3cc(Cl)ccc3NS(C)(=O)=O)nn2c(N(C)C)c1C [Compound 99] | 99% | 0.1 to 100 nM |
| Cc1nc2cc([C@@H]3CCCCN3C(=O)c3ccccc3NS(C)(=O)=O)nn2c(N(C)C)c1C [Compound 100] | 96% | 0.1 to 100 nM |
| Cc1ccc(NS(C)(=O)=O)c(C(=O)N2CCCC[C@H]2c2cc3nc(C)c(C)c(N(C)C)n3n2)c1 [Compound 101] | 100% | 0.1 to 100 nM |
| Cc1ccc(NS(C)(=O)=O)c(C(=O)N2CCCC[C@H]2c2cc3nc(C)c(C)c(NC4CC4)n3n2)c1 [Compound 102] | 98% | 0.1 to 100 nM |
| Cc1ccc(NS(C)(=O)=O)c(C(=O)N2CCCC[C@H]2c2cc3nc(C)c(C)c(C#N)n3n2)c1 [Compound 103] | 98% | 0.1 to 100 nM |
| Cc1ccc(NS(C)(=O)=O)c(C(=O)N2CCCC[C@H]2c2cc3nc(C)c(C)c(N4CCOCC4)n3n2)c1 [Compound 104] | 100% | 0.1 to 100 nM |
| CC1(O)CN(c2cc(N3CCC3)nc3cc([C@@H]4CCCCN4C(=O)c4cc(Cl)ccc4NS(C)(=O)=O)nn23)C1 [Compound 105] | 100% | 0.1 to 100 nM |
| CS(=O)(=O)Nc1ccc(Cl)cc1C(=O)N1CCCC[C@H]1c1cc2nc(N3CCC3)cc(N3CCSC3)n2n1 [Compound 106] | 100% | 0.1 to 100 nM |
| C[C@@H]1CN(c2cc(N3CCC3)nc3cc([C@@H]4CCCCN4C(=O)c4cc(Cl)ccc4NS(C)(=O)=O)nn23)C[C@H](C)O1 [Compound 107] | 100% | 0.1 to 100 nM |
| C[C@@H]1CN(c2cc(N3CC(O)C3)nc3cc([C@@H]4CCCCN4C(=O)c4cc(Cl)ccc4NS(C)(=O)=O)nn23)C[C@H](C)O1 [Compound 108] | 100% | 0.1 to 100 nM |

| SMILES | inhibition at 0.5 µM | EC50 |
| --- | --- | --- |
| CC#Cc1cc(N2CCOCC2)n2nc([C@@H]3CCCCN3C(=O)c3cc(Cl)ccc3NS(C)(=O)=O)cc2n1 [Compound 110] | 100% | 0.1 to 100 nM |
| Cc1cc(NS(C)(=O)=O)c(C(=O)N2CCCC[C@H]2c2cc3nc(C4CC4)cc(C)n3n2)s1 [Compound 111] | 95% | 0.1 to 100 nM |
| Cc1ccc(N2CCCC2=O)c(C(=O)N2CCCC[C@H]2c2cc3nc(C4CC4)cc(C)n3n2)c1 [Compound 112] | 97% | 0.1 to 100 nM |
| Cc1ccc(N2CCCS2(=O)=O)c(C(=O)N2CCCC[C@H]2c2cc3nc(C4CC4)cc(C)n3n2)c1 [Compound 113] | 100% | 0.1 to 100 nM |
| Cc1cc(C2CC2)nc2cc([C@@H]3CCCCN3C(=O)c3cc(N)ccc3NS(C)(=O)=O)nn12 [Compound 114] | 100% | 0.1 to 100 nM |
| CCc1ccc(NS(C)(=O)=O)c(C(=O)N2CCCC[C@H]2c2cc3nc(C4CC4)cc(C)n3n2)c1 [Compound 115] | 100% | 0.1 to 100 nM |
| CCc1ccc(NS(C)(=O)=O)c(C(=O)N2CCCC[C@H]2c2cc3[nH]c(C)c(C)c(=O)n3n2)c1 [Compound 116] | 98% | 0.1 to 100 nM |
| Cc1cc(C2CC2)nc2cc([C@@H]3CCCCN3C(=O)c3cc(F)c(F)cc3NS(C)(=O)=O)nn12 [Compound 117] | 99% | 0.1 to 100 nM |
| COC(=O)NC(C(=O)N1CCCC[C@H]1c1cc2nc(C3CC3)cc(C)n2n1)c1ccccc1 (some centres unmarked) [Compound 118] | 99% | 0.1 to 100 nM |
| Cc1cc(Cl)cc(C(=O)N2CCCC[C@H]2c2cc3[nH]c(C)c(C)c(=O)n3n2)c1NS(C)(=O)=O [Compound 120] | 100% | 0.1 to 100 nM |
| Cc1cc(C2CC2)nc2cc([C@@H]3CCCCN3C(=O)c3cc(F)cc(Br)c3NS(C)(=O)=O)nn12 [Compound 121] | 97% | 0.1 to 100 nM |
| Cc1cc(C2CC2)nc2cc([C@@H]3CCCCN3C(=O)c3cc(Br)ccc3NS(C)(=O)=O)nn12 [Compound 122] | 99% | 0.1 to 100 nM |
| Cc1[nH]c2cc([C@@H]3CCCCN3C(=O)c3cc(F)cc(Cl)c3NS(C)(=O)=O)nn2c(=O)c1C [Compound 127] | 99% | 0.1 to 100 nM |
| Cc1cn2nc([C@@H]3CCCCN3C(=O)c3cc(Cl)ccc3NS(C)(=O)=O)cc2nc1N1CC(C)C1 [Compound 129] | 100% | 0.1 to 100 nM |
| CS(=O)(=O)Nc1ccc(Cl)cc1C(=O)N1CCCC[C@H]1c1cc2nc(N3CC(O)C3)cc(N3CC(N)C3)n2n1 [Compound 130] | 100% | 0.1 to 100 nM |
| CS(=O)(=O)Nc1ccc(Cl)cc1C(=O)N1CCCC[C@H]1c1cc2nc(N3CC(N)C3)cc(N3CC(N)C3)n2n1 [Compound 131] | 100% | 0.1 to 100 nM |
| CS(=O)(=O)Nc1ccc(Cl)cc1C(=O)N1CCCC[C@H]1c1cc2nc(N3CC[C@@H](O)C3)cc(N3CC(N)C3)n2n1 [Compound 132] | 97% | 0.1 to 100 nM |
| CS(=O)(=O)Nc1ccc(Cl)cc1C(=O)N1CCCC[C@H]1c1cc2nc(N3CCC3)cc(N3CC(N)C3)n2n1 [Compound 133] | 96% | 0.1 to 100 nM |
| Cc1cn2nc([C@@H]3CCCCN3C(=O)c3cc(Cl)ccc3NS(C)(=O)=O)cc2nc1-c1ccccc1 [Compound 134] | 98% | 0.1 to 100 nM |
| Cc1cn2nc([C@@H]3CC[C@H](C)CN3C(=O)c3cc(Cl)ccc3NS(C)(=O)=O)cc2nc1N1CC(O)C1 [Compound 135] | 100% | 0.1 to 100 nM |
